Source: PMC6264295, “Studies on Log Po/w of Quinoxaline di-N-Oxides: A Comparison of RP-HPLC Experimental and Predictive Approaches” (Molecules, 2011)

Key:
[1] = reference compounds; reference values; ref OECD Guidelines [39]; cited from earlier work
[2] = RP-HPLC determination of capacity factors and log Po/w (Supelcosil LC-ABZ, MOPS buffer pH 7.4/methanol); conditions: for Capacity factors log k’40: 40% methanol; for Capacity factors log k’40 / Capacity factors log k’50 / Capacity factors log k’60 / Capacity factors log k’70: MOPS buffer pH 7.4; for Capacity factors log k’50: 50% methanol; for Capacity factors log k’60: 60% methanol; for Capacity factors log k’70: 70% methanol; for Capacity factors log k’0: extrapolated to 0% methanol; for chromatographic logP: pH 7.4, RP-HPLC log Po/w
Method: The RP-HPLC methods of Minick and Lombardo [53] were considered for estimating the n-octanol/water partition coefficients (log Po/w) of QdO. The inorganic salts and the reference compounds were, at least, of analytical grade (Sigma Aldrich and Fluka) and used without further purification. HPLC-grade methanol, n-octanol (Sigma-Aldrich) and bi-distilled water were used to prepare the mobile phase.
The other chromatographic conditions were: flow 1.0 mL/min^−1; isocratic elution, UV-visible detector set at the wavelength with maximum absorbance (260 and 210 nm). The test solutions were 0.3 mM in the desired compound. All the experiments were performed at 25 ± 2 °C at least twice.
The capacity factors were calculated according to Equation (2): […]
In order to judge if the experimentally measured log k’0 can be used to predict the log Po/w value, a calibration curve was created with the capacity factors of the reference compounds and a linear regression equation between the log Po/w and log k’0 was determined.
The robustness of the model and its predictivity were evaluated by the leave-one-out (LOO) cross-validation procedure. According to this procedure, the log Po/w value of each compound in the reference data set is predicted by the equations derived from all the other compounds except the predicted one. At the end of this procedure two values are available for each reference compound, the reference shake-flask log Po/w value (yi) and the predicted one (ŷi). […] The regression coefficient (R^2LOO) is defined by Equation (5): [drawing 8] (5) where [drawing 9] is the mean of the reference shake-flask log Po/w value and n is the number of reference compounds. A high value of R^2LOO indicates a good predictive ability of the model. The root mean squared error in prediction (RMSELOO) is calculated with Equation (6): [drawing 10] (6)

[3] = set-up: method as in earlier work; conditions: reduction peak potential; cited from earlier work

| Structure (SMILES) | log Po/w [1] | log k’0 ([2]; reference compounds, capacity factor extrapolated to 0% methanol, pH 7.4) | RP-HPLC log Po/w ([2]; reference compounds, from log k’0 by Equation (1)) | LOO-predicted RP-HPLC log Po/w ([2]; reference compounds, leave-one-out cross-validation) | Epc,1 [3] | Capacity factors log k’40 [2] | Capacity factors log k’50 [2] | Capacity factors log k’60 [2] | Capacity factors log k’70 [2] | Capacity factors log k’0 ([2]; pH 7.4) | chromatographic logP [2] |
| --- | --- | --- | --- | --- | --- | --- | --- | --- | --- | --- | --- |
| CCC(C)=O [Compound 1, 2-Butanone, reference compound] | 0.3 | −0.06 | 0.21 | 0.15 |  |  |  |  |  |  |  |
| Cc1ccc2c(c1)[n+]([O-])c(C(=O)NCC(c1ccccc1)c1ccccc1)c(C)[n+]2[O-] [Compound 27] |  |  |  |  | −1.640 | 1.21 | 0.80 | 0.33 | −0.12 | 3.02 | 3.28 |
| Cc1c(C(=O)NCC(c2ccccc2)c2ccccc2)[n+]([O-])c2cc(Cl)ccc2[n+]1[O-] [Compound 28] |  |  |  |  | −1.491 | 1.38 | 0.91 | 0.38 | −0.13 | 3.42 | 3.69 |
| Cc1c(C(=O)NCC(c2ccccc2)c2ccccc2)[n+]([O-])c2cc(Cl)c(Cl)cc2[n+]1[O-] [Compound 29] |  |  |  |  | −1.410 | 1.78 | 1.31 | 0.76 | 0.25 | 3.86 | 4.12 |
